Patent US20250051332A1 (priority 2022, published 2025)
Where two headings read alike, the source gives them in different places.

How the values were obtained:
μOR = biological target: T1, μOR (Homo sapiens, UniProt P35372); experiment: cell-based; format: cell-based; conditions: for Emax: read-out: μOR cAMP inhibition Emax ± SEM (%)
T1 construct: host or cells: CHO-K1

κOR [1] = biological target: T2, κOR (Homo sapiens, UniProt P41145); experiment: cell-based; format: cell-based; conditions: for Emax: read-out: κOR cAMP inhibition Emax ± SEM (%)
T2 construct: host or cells: CHO-K1
T2 sequence (P41145 whole entry): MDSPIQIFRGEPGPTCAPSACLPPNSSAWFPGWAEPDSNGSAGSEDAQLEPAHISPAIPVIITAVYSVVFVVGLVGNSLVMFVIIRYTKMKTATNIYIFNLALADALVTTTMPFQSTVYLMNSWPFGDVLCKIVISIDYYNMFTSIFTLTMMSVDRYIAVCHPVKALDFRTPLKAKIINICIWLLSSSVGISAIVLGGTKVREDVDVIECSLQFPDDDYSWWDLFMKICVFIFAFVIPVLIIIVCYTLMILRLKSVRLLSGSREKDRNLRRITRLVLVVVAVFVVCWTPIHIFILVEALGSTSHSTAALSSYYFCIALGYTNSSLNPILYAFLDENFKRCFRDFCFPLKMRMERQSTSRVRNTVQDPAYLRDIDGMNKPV

κOR [2] = biological target: T2, κOR; experiment: PathHunter β-arrestin-2 recruitment assay at the κOR; format: cell-based; conditions: FIG. 6
Source text: Cell Lines and Cell Culture. To perform the HitHunter cAMP accumulation assay, Chinese hamster ovary cells (CHO-K1) stably expressing human μ-opioid receptor (OPRM1, catalog no. 95-0107C2, DiscoverX, Fremont, CA, USA), K-opioid receptor (OPRK1, catalog no. 95-0088C2, DiscoverX, Fremont, CA, USA), or 6-opioid receptor (OPRD1, catalog no. 95-0108C2, DiscoverX, Fremont, CA, USA) were maintained at 80% confluence in F-12 media supplemented with 10% fetal bovine serum, 1% penicillin/streptomycin/L-glutamine, and 800 μg/mL G418. To perform the PathHunter β-arrestin-2 recruitment assay, U2OS-human κ opioid receptor (κOR) cells stably expressing the κOR and β-arrestin-2 (RRID:CVCL_LA97, DiscoverX, Fremont, CA, USA) were maintained in McCoy's 5A media supplemented with 10% FBS and containing 500 μg/mL geneticin and 250 μg/mL hygromycin. All cells were grown 37° C. under 5% CO2 in a humidified incubator under sterile conditions in T75 flasks. During passaging, cells were dislodged from the flask following a 3-5 min incubation with 0.25% trypsin or non-enzymatic detachment reagent and subcultivated at ratios of 1:10 (CHO) and 3:10 (U2OS).
PathHunter β-arrestin-2 Recruitment Assay. The R-arrestin-2 recruitment assay was performed using U2OS-human (κOR) PathHunter R-arrestin-2 cells (DiscoverX) as previously described.^77

320 non-olfactory GPCRs = experiment: PRESTO-Tango GPCRome screen of βArr2 recruitment; format: cell-based; conditions: 3 μM, FIG. 7
HERG = HERG (Homo sapiens, UniProt Q12809); conditions: data from reference 40; cited from earlier work
Chain of HERG (Q12809 whole entry): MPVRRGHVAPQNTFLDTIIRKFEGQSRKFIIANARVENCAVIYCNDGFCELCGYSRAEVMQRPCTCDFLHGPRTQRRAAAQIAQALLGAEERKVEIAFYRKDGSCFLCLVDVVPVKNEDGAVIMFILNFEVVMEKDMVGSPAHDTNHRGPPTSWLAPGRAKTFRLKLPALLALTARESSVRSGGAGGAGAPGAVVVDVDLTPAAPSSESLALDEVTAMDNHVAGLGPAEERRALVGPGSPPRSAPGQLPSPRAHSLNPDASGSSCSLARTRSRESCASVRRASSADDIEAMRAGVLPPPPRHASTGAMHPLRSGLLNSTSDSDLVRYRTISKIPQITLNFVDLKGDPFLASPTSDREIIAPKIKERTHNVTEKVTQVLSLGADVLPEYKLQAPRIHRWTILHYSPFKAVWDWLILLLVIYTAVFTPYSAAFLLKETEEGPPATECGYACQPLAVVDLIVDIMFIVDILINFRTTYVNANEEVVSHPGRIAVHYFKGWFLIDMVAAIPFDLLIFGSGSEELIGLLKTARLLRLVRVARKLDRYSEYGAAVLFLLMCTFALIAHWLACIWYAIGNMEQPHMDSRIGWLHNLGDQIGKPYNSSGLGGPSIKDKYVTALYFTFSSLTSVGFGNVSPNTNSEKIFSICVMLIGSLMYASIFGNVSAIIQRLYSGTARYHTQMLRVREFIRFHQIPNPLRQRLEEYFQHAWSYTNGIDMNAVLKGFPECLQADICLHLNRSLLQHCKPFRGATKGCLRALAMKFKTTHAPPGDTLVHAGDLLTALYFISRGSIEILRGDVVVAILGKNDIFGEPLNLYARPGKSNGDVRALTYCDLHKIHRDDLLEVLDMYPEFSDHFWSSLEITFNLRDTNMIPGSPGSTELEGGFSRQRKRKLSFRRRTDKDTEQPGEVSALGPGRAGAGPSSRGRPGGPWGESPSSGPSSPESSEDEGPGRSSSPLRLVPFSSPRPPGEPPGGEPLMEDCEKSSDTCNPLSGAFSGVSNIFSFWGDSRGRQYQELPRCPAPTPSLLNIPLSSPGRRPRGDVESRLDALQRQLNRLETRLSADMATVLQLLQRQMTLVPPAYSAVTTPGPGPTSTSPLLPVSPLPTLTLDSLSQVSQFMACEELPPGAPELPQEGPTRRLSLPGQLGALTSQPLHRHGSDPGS

[3] = read-out: μOR cAMP inhibition EC50
[4] = read-out: κOR cAMP inhibition EC50

T1 sequence (P35372 whole entry): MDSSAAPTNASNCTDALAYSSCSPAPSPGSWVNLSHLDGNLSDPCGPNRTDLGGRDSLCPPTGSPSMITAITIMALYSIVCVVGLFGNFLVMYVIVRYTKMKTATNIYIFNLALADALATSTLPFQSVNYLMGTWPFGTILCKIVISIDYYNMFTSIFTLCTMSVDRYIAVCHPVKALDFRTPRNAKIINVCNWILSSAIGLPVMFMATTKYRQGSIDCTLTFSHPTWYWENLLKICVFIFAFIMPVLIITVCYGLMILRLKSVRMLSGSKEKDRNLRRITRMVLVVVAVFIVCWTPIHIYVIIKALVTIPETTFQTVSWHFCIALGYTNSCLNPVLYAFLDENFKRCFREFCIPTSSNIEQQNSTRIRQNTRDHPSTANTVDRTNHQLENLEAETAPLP

Compound | EC50 (μOR) | EC50 (μOR; [3]) | EC50 (κOR [1]) | Emax (μOR) | EC50 (κOR [1]; [4]) | Emax (κOR [1]) | μOR cAMP inhibition pEC50 ± SEM (μOR) | κOR cAMP inhibition pEC50 ± SEM (κOR [1]) | also measured
CC=C1CN2CCC34c5cc(I)ccc5NC3C(C(=O)OC)C1CC24 (stereo not drawn) [Compound 22, 10-Iodo-2,16-dihydroakuammicine] | > 10000 nM | > 10000 nM | 24 nM | – | – | – | – | – | –
CCC1CN2CCC34c5ccccc5NC3C(C(=O)OC)C1CC24 (stereo not drawn) [Compound 15, 2,16,19,20-tetrahydroakuammicine] | > 10000 nM | > 10000 nM | > 10000 nM | < 10% | > 10000 nM | < 10% | – | – | agonist activity at the κOR (κOR [1]): all κOR agonist activity is abolished or significantly diminished
19-Hydroxyalstolucine [Compound 12] | – | > 10000 nM | – | – | > 10000 nM | – | — (key: — = no activity observed at 10 μM.) | — (key: — = no activity observed at 10 μM.) | agonist activity at the μOR (μOR): no agonist activity; μOR cAMP inhibition Emax ± SEM (%) (μOR): <10%; agonist activity at the κOR (κOR [1]): no agonist activity; κOR cAMP inhibition Emax ± SEM (%) (κOR [1]): <10%
C/C=C1/CN2CC[C@]34C(=C(C(=O)OC)[C@H]1C[C@H]23)Nc1ccc(-c2ccoc2)cc14 [Compound 5, 10-(3-Furanyl)akuammicine] | 720 to 840 nM | 720 nM | – | 99 ± 12% | 0.88 nM | 102 ± 2% | 6.1 ± 0.2 | 9.1 ± 0.1 | fold increase in κOR potency relative to 1 (κOR [1]): > 1,300; βArr2 recruitment compared with U50,488 (κOR [2]): significantly less recruitment of βArr2 than U50488 at concentrations <10 μM
C/C=C1/C[N+]2(C)CC[C@]34C(=C(C(=O)OC)[C@H]1C[C@@H]32)Nc1ccccc14 (stereo partly drawn) [Compound 16, N-4-Methylakuammicine] | – | – | – | < 10% | – | < 10% | – | – | –
C/C=C1/C[N+]2(Cc3ccccc3)CC[C@]34C(=C(C(=O)OC)[C@H]1C[C@@H]32)Nc1ccccc14 (stereo partly drawn) [Compound 20, N-4-Benzylakuammicine] | – | 2300 nM | – | 112 ± 6% | – | < 10% | 5.6 ± 0.1 | – | –
CC=C1CN2CCC34C(=C(C(=O)OC)C1CC23)Nc1ccc([N+](=O)[O-])cc14 (stereo not drawn) [Compound 8, 10-Nitroakuammicine] | 4000 nM | – | 160 nM | < 10% | – | 96 ± 5% | – | – | βArr recruitment against GPCRome (320 non-olfactory GPCRs): induced recruitment of a number of non-opioid targets; Selectivity index = μOR EC50/κOR EC50 (κOR [1]): 25
C/C=C1/CN2CC[C@]34C(=C(C(=O)OC)[C@H]1C[C@H]23)Nc1ccc(-c2ccsc2)cc14 [Compound 6, 10-(3-Thienyl)akuammicine] | 720 to 840 nM | 840 nM | – | 107 ± 3% | 7.7 nM | 104 ± 3% | 6.1 ± 0.1 | 8.1 ± 0.1 | –
CC[C@@H]1CN2CC[C@]34C(=C(C(=O)OC)[C@H]1C[C@H]23)Nc1ccccc14 [Compound 13, 19,20-dihydroakuammicine] | – | > 10000 nM | – | – | 1600 nM | – | — (key: — = no activity observed at 10 μM.) | 5.8 ± 0.1 | μOR cAMP inhibition Emax ± SEM (%) (μOR): <10%; κOR cAMP inhibition Emax ± SEM (%) (κOR [1]): 99 ± 9%
C/C=C1/CN2CC[C@]34C(=C(C(=O)OC)[C@H]1C[C@H]23)Nc1ccc(-c2ccccc2)cc14 [Compound 4, 10-Phenylakuammicine] | 720 to 840 nM | 780 nM | – | 106 ± 6% | 15 nM | 101 ± 2% | 6.1 ± 0.1 | 7.8 ± 0.1 | –
CC=C1CN2CCC34C(=C(C(=O)OC)C1CC23)Nc1ccc(C#N)cc14 (stereo not drawn) [Compound 7, 10-Cyanoakuammicine] | > 10000 nM | > 10000 nM | 81 nM | < 10% | – | 102 ± 6% | – | – | agonist activity at the μOR (μOR): without activating the μOR
C/C=C1/CN2CC[C@]34c5ccccc5NC3C(C(=O)OC)[C@H]1C[C@H]24 (stereo partly drawn) [Compound 14, 2,16-dihydroakuammicine] | > 10000 nM | > 10000 nM | > 10000 nM | < 10% | > 10000 nM | < 10% | – | – | agonist activity at the κOR (κOR [1]): all κOR agonist activity is abolished or significantly diminished
C/C=C1/CN2CC[C@]34C(=C(C(=O)OC)[C@H]1C[C@H]23)Nc1ccccc14 [Compound 1, Akuammicine, reference compound] | – | – | – | – | – | 91 ± 7% | – | – | Ki (nM) at HERG (HERG): — (“—” indicates compound produced less than 50% displacement of radioligand in primary binding screen at 10 μM.)
CC=C1C[N+]2(CC3CC3)CCC34C(=C(C(=O)OC)C1CC32)Nc1ccccc14 (stereo not drawn) [Compound 19, N-4-Cyclopropylmethylakuammicine] | > 10000 nM | > 10000 nM | 4700 nM | < 10% | – | 113 ± 24% | – | – | fold reduced κOR potency compared to 1 (κOR [1]): about 4 fold
C/C=C1/C[N+]2(CC3CC3)CC[C@]34C(=C(C(=O)OC)[C@H]1C[C@@H]32)Nc1ccc(Br)cc14 (stereo partly drawn) [Compound 25, 10-Bromo-N-4-cyclopropylmethylakuammicine] | – | – | – | < 10% | 210 nM | 94 ± 5% | – | 6.7 ± 0.1 | –
COC(=O)C1=C2Nc3ccccc3[C@@]23CCN2C[C@@](O)([C@@H](C)O)[C@@H]1C[C@H]23 [Compound 10, 19R,20R-Dihydroxyakuammicine] | – | – | – | – | – | – | – | – | agonist activity at the μOR (μOR): no agonist activity; agonist activity at the κOR (κOR [1]): no agonist activity
CC=C1C[N+]2(C)CCC34C(=C(C(=O)OC)C1CC32)Nc1ccc(Br)cc14 (stereo not drawn) [Compound 23, 10-Bromo-N-4-methylakuammicine] | > 10000 nM | > 10000 nM | 940 nM | < 10% | – | 102 ± 7% | – | – | –
C/C=C1/C[N+]2(CCC)CC[C@]34C(=C(C(=O)OC)[C@H]1C[C@@H]32)Nc1ccccc14 (stereo partly drawn) [Compound 18, N-4-Propylakuammicine] | – | – | – | < 10% | – | < 10% | – | – | –
C=CC[N+]12CCC34C(=C(C(=O)OC)C(CC31)C(=CC)C2)Nc1ccccc14 (stereo not drawn) [Compound 17, N-4-Allylakuammicine] | > 10000 nM | > 10000 nM | > 10000 nM | < 10% | > 10000 nM | < 10% | – | – | –
C=CC[N+]12CCC34C(=C(C(=O)OC)C(CC31)C(=CC)C2)Nc1ccc(Br)cc14 (stereo not drawn) [Compound 24, 10-Bromo-N-4-allylakuammicine] | > 10000 nM | > 10000 nM | 650 nM | < 10% | – | 100 ± 7% | – | – | –
C/C=C1/CN2CC[C@]34c5cc(Br)ccc5NC3C(C(=O)OC)[C@H]1C[C@H]24 (stereo partly drawn) [Compound 21, 10-Bromo-2,16-dihydroakuammicine] | – | – | – | – | 47 nM | 100 ± 4% | – | 7.3 ± 0.1 | –
CCC1CN2CCC34C(=C(C(=O)OC)C1CC23)Nc1ccc(Br)cc14 (stereo not drawn) [Compound 27, 10-Bromo-19,20-dihydroakuammicine] | – | 1100 nM | – | 107 ± 5% | 31 nM | 100 ± 5% | 6.0 ± 0.1 | 7.5 ± 0.1 | Selectivity index = μOR EC50/κOR EC50 (κOR [1]): 35
